# Source: publication PMC3832036, “The crystal structures of the tri-functional Chloroflexus aurantiacus and bi-functional Rhodobacter sphaeroides malyl-CoA lyases and comparison with CitE-like superfamily enzymes and malate synthases” (BMC Structural Biology, 2013)
# B1: malyl-CoA lyase of Rhodobacter sphaeroides (enzyme, Rhodobacter sphaeroides 2.4.1)
# chain: MSFRLQPAPPARPNRCQLFGPGSRPALFEKMAASAADVINLDLEDSVAPDDKAQARANIIEAINGLDWGRKYLSVRINGLDTPFWYRDVVDLLEQAGDRLDQIMIPKVGCAADVYAVDALVTAIERAKGRTKPLSFEVIIESAAGIAHVEEIAASSPRLQAMSLGAADFAASMGMQTTGIGGTQENYYMLHDGQKHWSDPWHWAQAAIVAACRTHGILPVDGPFGDFSDDEGFRAQARRSATLGMVGKWAIHPKQVALANEVFTPSETAVTEAREILAAMDAAKARGEGATVYKGRLVDIASIKQAEVIVRQAEMISA
# notes: Malyl-CoA lyase of Rhodobacter sphaeroides 2.4.1, GenBank ACJ71673; model 4L9Z holds Ser2 or Phe3 through Met315 with only the C-terminal three residues missing (lid domain residues 264-318); 36.8 kDa per monomer; Hexamer (dimer of trimers); The His10 tag had no electron density in the crystals; also called MCLR; MCL; source: E. coli BL21(DE3), purified (Ni-Sepharose, gel filtration); not shown: …
# B2: malyl-CoA lyase of Chloroflexus aurantiacus (enzyme, Chloroflexus aurantiacus OK-70-fl, UniProt S5N020 1-348, looked up)
# chain: MRKLAHNFYKPLAIGAPEPIRELPVRPERVVHFFPPHVEKIRARIPEVAKQVDVLCGNLEDAIPMDAKEAARNGFIEVVKATDFGDTALWVRVNALNSPWVLDDIAEIVAAVGNKLDVIMIPKVEGPWDIHFVDQYLALLEARHQIKKPILIHALLETAQGMVNLEEIAGASPRMHGFSLGPADLAASRGMKTTRVGGGHPFYGVLADPQEGQAERPFYQQDLWHYTIARMVDVAVAHGLRAFYGPFGDIKDEAACEAQFRNAFLLGCTGAWSLAPNQIPIAKRVFSPDVNEVLFAKRILEAMPDGSGVAMIDGKMQDDATWKQAKVIVDLARMIAKKDPDLAQAYGL
# notes: Malyl-CoA lyase of Chloroflexus aurantiacus OK-70-fl, GenBank AGR55786; gene amplified from chromosomal DNA with primers upstream (NdeI at the start codon) and downstream of the gene, cloned into pT7-7; 348 residues (models run from Arg2 to Leu348, the native C-terminus); calculated 38.4 kDa per monomer; Hexamer (dimer of trimers); No tag is named for this construct; also called MCLC; MCL; …
# Experiments:
# [1] = molecular target: T1, MCLR (Cereibacter sphaeroides, UniProt Q3J5L6); details: Mg2+; pH 8.5; two closed active sites; not intentionally added, modelled from density
# T1 construct: gene mcl1
# [2] = molecular target: T1, MCLR; details: glyoxylate and Mg2+ present; pH 8.5; one of the closed active sites
# [3] = molecular target: T1, MCLR; details: 0.5 mM acetyl-CoA, 100 mM pyruvate, 5 mM MgCl2, MOPS/KOH pH 7.5
# [4] = molecular target: the molecule itself; test: SEC; Superdex 200 10/30 GL, 20 mM Tris/HCl pH 7.5, 2 mM MgCl2, 100 mM NaCl, 4°C; molecular weight against protein standards
molecule,measurement,setting,value
"O=CC(=O)O [GLX, glyoxylate]","X-ray crystal structure, glyoxylate carried over from E. coli, 2.1 A",[1],active sites contained electron density that allowed modeling of glyoxylate molecules together with magnesium ions
"CCC(=O)SCCNC(=O)CCNC(=O)[C@H](O)C(C)(C)COP(=O)(O)OP(=O)(O)OC[C@H]1O[C@@H](n2cnc3c(N)ncnc32)[C@H](O)[C@@H]1OP(=O)(O)O [PCO, propionyl-CoA]","X-ray crystal structure, crystal soaking, 2.1 A",[2],one of these closed active sites was also occupied by propionyl-CoA
"CC(=O)C(=O)O [PYR, pyruvate]",reversed phase HPLC of citramalyl-CoA formation,[3],formation of citramalyl-CoA was confirmed by reversed phase HPLC analysis
B1,stoichiometry N,[4],6
B2,stoichiometry N,[4],6
